Holding throughout (format): functional, cell-based
The test system of one experiment is NCI-H460. Nature of the experiment: Cytotoxic activity against human NCI-H460 cells after 48 hrs by MTT assay. As to conditions: NCI-H460, 48 h.
Experiment [1] in a line: Cytotoxic activity against human BGC823 cells after 48 hrs by MTT assay. As to conditions: BGC-823, 48 h. (Tetrazolium dyes change colour on reduction, which living cells bring about.)
Experiment [2] can be described thus: Cytotoxic activity against human SGC7901 cells after 48 hrs by MTT assay. As to conditions: SGC-7901, 48 h.
In another experiment the test system is MDA-MB-231. Nature of the experiment: Cytotoxic activity against human MDA-MB-231 cells after 48 hrs by MTT assay. As to conditions: MDA-MB-231, 48 h.

Structures are written as SMILES. ≈ marks a conversion by molar mass, not a printed value. Where only a bound is given, the exact number is not on record here.

Three compounds from ChEMBL document CHEMBL3400055, “(+)- and (-)-liriodenol, a pair of novel enantiomeric lignans from Liriodendron hybrid” (Bioorg Med Chem Lett, 2015) can be followed below.

By IC50 is commonly meant the midpoint of a concentration-inhibition curve. Read a low IC50 as higher potency. With `C=C(C(=O)c1cc(OC)c(O)c(OC)c1)[C@H](CO)C(=O)c1cc(OC)c(O)c(OC)c1`, the IC50 with NCI-H460 is 63.4 µg/mL (≈ 147 µM); in experiment [1] it was above 100 µg/mL; in experiment [2], above 100 µg/mL; in the experiment on MDA-MB-231, 53.3 µg/mL (≈ 123 µM).

For the compound `C=C(C(=O)c1cc(OC)c(O)c(OC)c1)[C@@H](CO)C(=O)c1cc(OC)c(O)c(OC)c1`, the IC50 in the experiment with NCI-H460 was 31.4 µg/mL (≈ 72.7 µM); in experiment [1], 45.5 µg/mL (≈ 105 µM); in experiment [2], 34.5 µg/mL (≈ 79.7 µM); in the experiment on MDA-MB-231 it was 28.7 µg/mL (≈ 66.3 µM).

Regarding `C=C(C(=O)c1cc(OC)c(O)c(OC)c1)C(CO)C(=O)c1cc(OC)c(O)c(OC)c1` (racemic), the IC50 with NCI-H460 turned out to be 58.1 µg/mL (≈ 134 µM); in experiment [1] it was 58.9 µg/mL (≈ 136 µM); in experiment [2] it was 67.5 µg/mL (≈ 156 µM); in the experiment on MDA-MB-231 it was 51.4 µg/mL (≈ 119 µM).
